Read-outs that look alike come from different tables or passages of the source.
Columns and labels:
wood-damaging fungi = settings: cited from earlier work
molds = settings: 35° C. saturated water vapor
Description: Two pinewood boards in each case are dipped into potassium sorbate solution (see table 1 for concentrations) and stored in a saturated water vapor atmosphere at 35° C. In parallel with this, in each case two pinewood boards, after the dipping, were additionally dirtied with soil on the surface in order to achieve greater surface contamination with molds. The boards were individually packed in film in order to exclude cross contaminations and regularly visually examined for fungal infection.

blue stain infection = test system: blue stain infection
Text: Immersion Impregnation with Aqueous Potassium Sorbate Solution Air-dry pine boards are dipped into a solution of 30% potassium sorbate in water for […] of the surface. After the treatment they are air dried.
Air-dried pine boards are, as in example 1, dipped into a solution of 30% potassium sorbate in a mixture of 75% by volume of water and 25% by volume of 1,2-propanediol, further treated and stored.
Air-dried pine boards are sprayed with a spraying pistol with a solution of 20% potassium sorbate in water until the surface is uniformly wet. The boards are then allowed to dry and are stored as in example 1.

fungi = settings: cited from earlier work

C/C=C/C=C/C(=O)[O-].C/C=C/C=C/C(=O)[O-].[Zn+2] [zinc salt of sorbic acid]
Activity as wood preservative (wood-damaging fungi): inactive

C/C=C/C=C/C(=O)[O-].[K+] [potassium sorbate]
Fungal infection (molds; V1: dwell time 10 min, 1 % by weight solution, without soil): no/after 81 days | Fungal infection (molds; V2: dwell time 10 min, 2 % by weight solution, without soil): no/after 81 days | Fungal infection (molds; V3: dwell time 10 min, 5 % by weight solution, without soil): no/after 81 days | Fungal infection (molds; V4: dwell time 5 min, 10 % by weight solution, without soil): no/after 81 days | Fungal infection (molds; V5: dwell time 10 min, 1 % by weight solution, with soil): little/from day 43 | Fungal infection (molds; V6: dwell time 10 min, 2 % by weight solution, with soil): little/from day 53 | Fungal infection (molds; V7: dwell time 10 min, 5 % by weight solution, with soil): no/after 81 days | Fungal infection (molds; V8: dwell time 5 min, 10 % by weight solution, with soil): no/after 81 days | Fungal infection after storage (blue stain infection; pine boards dipped in 30% potassium sorbate in 75% by volume water / 25% by volume 1,2-propanediol, stored as in example 1): completely free from fungal infection | Fungal infection after storage (blue stain infection; pine boards dipped in 30% potassium sorbate in water, stored in the open three weeks next to untreated boards): remain free from fungal infection | Fungal infection after storage (blue stain infection; pine boards sprayed with 20% potassium sorbate in water, stored as in example 1): corresponds to that of example 1

C/C=C/C=C/C(=O)[O-].[Na+] [sodium sorbate]
Protection of bamboo against fungal infection (fungi; generally, even after a few days): infection with fungi | Protection of bamboo against fungal infection (fungi; pH 3.0): active

Source: patent US20010018454A1, “Method for protecting wood and wooden articles from fungal infection” (priority 2000, published 2001)
